Patent publication US9663486B2, “Selectively substituted quinoline compounds” (EISAI R&D MANAGEMENT CO., LTD., priority 2013, dated 2017)

Tests used:
[1] = target: T1, human TLR8 (Homo sapiens, UniProt Q9NR97); assay: HEK-293 assay format, human TLR8 (CL097); type: cell-based; settings: read-out: HEK/hTLR8 IC50
T1 construct: host or cells: HEK-293 stably expressing hTLR8, then transfected with pNiFty2(NF-kappaB)-luciferase
T1 sequence (Q9NR97 27-1041): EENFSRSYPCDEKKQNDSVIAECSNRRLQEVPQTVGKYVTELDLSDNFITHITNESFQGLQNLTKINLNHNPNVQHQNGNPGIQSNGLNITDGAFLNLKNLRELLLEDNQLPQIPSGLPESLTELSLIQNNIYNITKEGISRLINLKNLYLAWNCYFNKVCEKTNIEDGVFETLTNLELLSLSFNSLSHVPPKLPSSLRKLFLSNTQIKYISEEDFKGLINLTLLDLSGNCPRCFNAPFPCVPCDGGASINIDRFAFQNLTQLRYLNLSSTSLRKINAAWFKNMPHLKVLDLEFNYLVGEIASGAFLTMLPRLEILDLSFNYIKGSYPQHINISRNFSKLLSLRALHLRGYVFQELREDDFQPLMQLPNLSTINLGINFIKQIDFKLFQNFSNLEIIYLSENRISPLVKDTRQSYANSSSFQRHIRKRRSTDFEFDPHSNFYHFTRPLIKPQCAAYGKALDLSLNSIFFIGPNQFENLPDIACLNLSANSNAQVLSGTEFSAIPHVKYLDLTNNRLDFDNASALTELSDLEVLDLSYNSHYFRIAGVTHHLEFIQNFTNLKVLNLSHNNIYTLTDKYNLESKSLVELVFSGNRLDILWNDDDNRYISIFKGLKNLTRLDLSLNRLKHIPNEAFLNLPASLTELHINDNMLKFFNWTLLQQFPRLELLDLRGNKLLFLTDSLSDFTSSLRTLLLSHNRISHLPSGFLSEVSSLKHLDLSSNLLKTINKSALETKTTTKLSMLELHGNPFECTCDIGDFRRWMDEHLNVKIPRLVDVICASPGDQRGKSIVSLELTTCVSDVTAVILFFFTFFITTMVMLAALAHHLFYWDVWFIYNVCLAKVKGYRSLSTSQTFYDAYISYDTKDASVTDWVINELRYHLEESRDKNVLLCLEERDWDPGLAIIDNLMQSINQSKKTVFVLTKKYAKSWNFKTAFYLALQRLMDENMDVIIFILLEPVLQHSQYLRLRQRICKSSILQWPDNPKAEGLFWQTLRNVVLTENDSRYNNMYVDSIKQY
Excerpt: HEK-293 cells (ATCC) were engineered to stably express a NF-kappaB transcription factor inducible E-selectin (ELAM-1) luciferase reporter derived from the plasmid pGL3 (Promega) containing base pairs −2241 bp to −254 bp from the promoter of the human E-selectin gene (Accession No. NM_000450). These cells were then subsequently engineered to stably and individually express human TLR4, TLR7 or TLR9 full-length ORF cDNAs. Human TLR4 cDNA (Accession No. NM_138554) was cloned into pcDNA 3.0 expression vector (Invitrogen). TLR4 transfected cells were also engineered to express human MD-2 co-receptor [MD-2 cDNA (Accession No. NM_015364) was cloned into the pEF-BOS vector] and were supplemented with 10 nM soluble CD14 (R&D Systems) in the media to optimize LPS responsiveness. Human TLR9 cDNA (Accession No. NM_017442) was cloned into the pBluescript II KS vector (Agilent). Human TLR7 cDNA (Accession No. NM_016562) was obtained from OriGene. HEK-293 cells stably expressing human TLR8 (Accession No. NM_138636) or mouse TLR7 (Accession No. NM_133211) were purchased from InvivoGen and were then stably transfected with pNiFty2(NF-kappaB)-luciferase reporter plasmid (InvivoGen). Each cell type was plated in Dulbecco's modified Eagle's medium (DMEM) containing 10% fetal bovine serum (FBS) at a density of 2.22×10^5 cells/ml into a 384-well plate and incubated for 2 days at 37° C., 5% CO2. […]

[2] = tested on: Human TLR7/8; assay: Human PBMC cell-based assay, TLR7/8 (RNA-Ig), cytokine ELISA; settings: PBMC assay data summary; ligand and analyte not given; read-out: Human PBMCs IC50
Experimental: Human peripheral blood mononuclear cells (PBMC) were isolated from freshly-drawn heparinized (10 USP units/ml, Hospira, Lakeforest, Ill.) healthy donor whole blood by density gradient (Histopaque® 1077, Sigma, Inc., St. Louis, Mo.). Briefly, 25 ml blood was diluted with 15 ml PBS (without Ca^2+, Mg^2+) in a 50 ml conical tube, and 12 ml Histopaque was underlaid using a spinal needle. Tubes were centrifuged for 45 minutes at 1200 rpm (350×g), and PBMC were collected from the buffy coat. Cells were then washed twice in PBS, and red blood cells were lysed by suspension in 5 ml ammonium chloride solution (1× Red Blood Cell Lysis Buffer, eBioscience) for 5 minutes at room temperature. After a final wash in PBS, PBMC were resuspended at a final concentration of 2×10^6/ml in RPMI-1640 media with L-glutamine (Invitrogen) and supplemented with 25 mM HEPES (Mediatech, Inc, Manassas Va.), 10% fetal bovine serum (HyClone, Logan, Utah), and Penicillin-Streptomycin-Glutamine (Mediatech) and plated at 100 ul/well (2×10^5 cells/well) in tissue culture treated 96-well plates (Falcon).
Antagonist compounds solubilized and serial diluted in 100% DMSO were added in triplicate to cells to yield a final concentration of 0.1% DMSO (v/v). Hydroxychloroquine (Acros Organics) solubilized and serial diluted in PBS was added in triplicate to cells. PBMC were incubated with antagonist compounds or HCQ for 30 minutes at 37° C., 5% CO2 before adding various TLR agonist reagents in 100 ul complete media per well as follows (final concentrations indicated): R848 (Resiquimod; GLSynthesis, Worcester, Mass.) at 1 uM for TLR7 and TLR8, Pam3CSK4 (InvivoGen) at 50 ng/ml for TLR1/2, LPS (Sigma) at 10 ng/ml for TLR4, and CpG-2216 (InvivoGen) at 5 ug/ml for TLR9. […] The resulting “RNA-Ig” stimulus was incubated at room temperature for 15-30 minutes before adding to cells. PBMC were incubated with the various TLR agonists for 20 hours at 37° C., 5% CO2. Cell culture supernatants were collected, and levels of various human cytokines were assessed as indicated by standard ELISA procedure according to the manufacturer's recommended protocol (BD Biosciences, Inc., San Diego, Calif.).

[3] = target: Human TLR4 (Homo sapiens, UniProt O00206); assay: Human PBMC cell-based assay, LPS stimulation, IL-6; parameters: endogenous in cells; host or cells: primary human PBMC from healthy donors; settings: Hu PBMC; ligand LPS
Chain of Human TLR4 (O00206 24-839): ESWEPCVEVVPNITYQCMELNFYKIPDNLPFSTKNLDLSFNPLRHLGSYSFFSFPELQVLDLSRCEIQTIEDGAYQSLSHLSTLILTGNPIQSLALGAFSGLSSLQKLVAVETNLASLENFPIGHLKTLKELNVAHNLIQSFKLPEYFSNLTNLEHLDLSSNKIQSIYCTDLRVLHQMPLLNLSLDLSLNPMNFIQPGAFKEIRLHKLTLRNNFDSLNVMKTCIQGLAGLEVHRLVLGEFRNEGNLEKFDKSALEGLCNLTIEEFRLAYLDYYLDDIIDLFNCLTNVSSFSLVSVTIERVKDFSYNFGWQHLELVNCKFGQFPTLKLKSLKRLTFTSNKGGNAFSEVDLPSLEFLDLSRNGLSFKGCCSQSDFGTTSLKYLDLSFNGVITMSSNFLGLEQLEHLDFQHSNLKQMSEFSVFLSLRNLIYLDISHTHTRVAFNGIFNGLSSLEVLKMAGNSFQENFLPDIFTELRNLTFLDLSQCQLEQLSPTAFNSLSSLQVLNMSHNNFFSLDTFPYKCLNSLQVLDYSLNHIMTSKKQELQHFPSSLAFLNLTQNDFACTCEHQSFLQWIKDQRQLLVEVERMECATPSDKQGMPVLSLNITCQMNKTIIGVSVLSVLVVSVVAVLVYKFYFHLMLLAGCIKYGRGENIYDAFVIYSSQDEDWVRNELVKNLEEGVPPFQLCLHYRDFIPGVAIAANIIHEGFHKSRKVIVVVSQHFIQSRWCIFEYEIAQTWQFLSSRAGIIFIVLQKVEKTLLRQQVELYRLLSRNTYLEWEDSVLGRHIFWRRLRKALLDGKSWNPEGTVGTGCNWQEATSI
Chain of Human TLR4 (Q9Y6Y9 19-160 partner): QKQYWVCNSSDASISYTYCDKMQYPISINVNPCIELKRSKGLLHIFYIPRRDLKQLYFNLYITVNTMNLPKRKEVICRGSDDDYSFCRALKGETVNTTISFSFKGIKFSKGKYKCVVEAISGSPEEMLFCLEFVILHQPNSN
Experimental: (§1) Human peripheral blood mononuclear cells (PBMC) were isolated from freshly-drawn heparinized (10 USP units/ml, Hospira, Lakeforest, Ill.) healthy donor whole blood by density gradient (Histopaque® 1077, Sigma, Inc., St. Louis, Mo.). Briefly, 25 ml blood was diluted with 15 ml PBS (without Ca^2+, Mg^2+) in a 50 ml conical tube, and 12 ml Histopaque was underlaid using a spinal needle. Tubes were centrifuged for 45 minutes at 1200 rpm (350×g), and PBMC were collected from the buffy coat. Cells were then washed twice in PBS, and red blood cells were lysed by suspension in 5 ml ammonium chloride solution (1× Red Blood Cell Lysis Buffer, eBioscience) for 5 minutes at room temperature. […]
(§2) Antagonist compounds solubilized and serial diluted in 100% DMSO were added in triplicate to cells to yield a final concentration of 0.1% DMSO (v/v). […] Cell culture supernatants were collected, and levels of various human cytokines were assessed as indicated by standard ELISA procedure according to the manufacturer's recommended protocol (BD Biosciences, Inc., San Diego, Calif.).

[4] = target: T2, Human TLR9 (Homo sapiens, UniProt Q9NR96); assay: Human PBMC cell-based assay, CpG-ODN stimulation, IL-6; parameters: endogenous in cells; host or cells: primary human PBMC from healthy donors; settings: Hu PBMC; ligand CpG-ODN
T2 sequence (Q9NR96 26-1032): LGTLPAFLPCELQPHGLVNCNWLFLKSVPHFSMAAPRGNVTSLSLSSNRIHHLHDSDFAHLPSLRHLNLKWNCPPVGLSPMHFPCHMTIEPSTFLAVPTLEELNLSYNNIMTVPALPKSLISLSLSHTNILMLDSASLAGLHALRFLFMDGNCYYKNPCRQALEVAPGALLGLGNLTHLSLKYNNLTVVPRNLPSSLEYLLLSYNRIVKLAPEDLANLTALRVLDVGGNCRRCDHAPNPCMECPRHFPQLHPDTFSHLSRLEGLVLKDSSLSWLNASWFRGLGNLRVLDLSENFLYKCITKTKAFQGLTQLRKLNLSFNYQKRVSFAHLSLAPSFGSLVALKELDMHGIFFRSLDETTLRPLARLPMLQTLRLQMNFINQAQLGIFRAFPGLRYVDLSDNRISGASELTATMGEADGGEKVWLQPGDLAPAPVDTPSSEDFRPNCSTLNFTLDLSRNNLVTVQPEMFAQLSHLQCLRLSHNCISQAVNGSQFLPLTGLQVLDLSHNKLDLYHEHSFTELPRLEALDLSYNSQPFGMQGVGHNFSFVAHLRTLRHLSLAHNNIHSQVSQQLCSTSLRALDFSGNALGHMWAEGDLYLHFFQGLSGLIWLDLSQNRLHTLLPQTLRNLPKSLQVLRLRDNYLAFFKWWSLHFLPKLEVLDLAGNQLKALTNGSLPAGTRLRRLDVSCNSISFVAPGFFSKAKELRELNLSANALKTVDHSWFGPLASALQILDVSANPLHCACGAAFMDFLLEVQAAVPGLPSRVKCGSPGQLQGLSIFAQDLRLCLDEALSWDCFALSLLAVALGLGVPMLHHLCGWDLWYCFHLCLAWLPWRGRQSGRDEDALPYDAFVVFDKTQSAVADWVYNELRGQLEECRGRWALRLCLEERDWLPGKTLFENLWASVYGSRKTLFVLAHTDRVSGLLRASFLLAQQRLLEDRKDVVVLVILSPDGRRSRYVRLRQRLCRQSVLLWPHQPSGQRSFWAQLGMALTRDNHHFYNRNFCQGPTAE
Experimental: as §1, §2

IC50 [3]	IC50 [4]	SMILES	IC50 [1]	IC50 [2]
		N#Cc1ccc(N2CCC[C@@H](N)C2)c2cccnc12 [ER-878921]	74 nM	90 nM
> 10000 nM	150 to 300 nM	CCN(CCO)CCCC(C)Nc1ccnc2cc(Cl)ccc12 (stereo not shown) [HCQ, Hydroxychloroquine]		
